This test has as its system Chaetoceros. Briefly: Pigment and chlorophyll a content of Chaetoceros cultured for 20 days. The class given is cell-based. The method, then: With respect to Chaetoceros cultured for 20 days after the silicic acid hydrogel and sodium metasilicate were added in an experimental plot and a control plot, respectively, under the same conditions as in Embodiment 3, difference in pigment and chlorophyll a content were examined. 20 mL of culture solution was collected from each of the experimental plot and the control plot, each cell density was measured, and only the cells were collected by suction filtration with a GF/F filter having a diameter of 47 mm (Whatman International Ltd.). Chlorophyll a was measured by a fluorescence method with a fluorometer (Turner Designs, Inc.) or by a measurement method with a spectrophotometer (Shimadzu Corporation).

Results on one compound are retold here after patent publication US20090124501A1, “Silicic Acid Componenet Supplying Agent For Algae And Method For Supplying Silicic Acid Component To Algae” (Incorporated Administrative Agency Fisheries Research Agency, priority 2006, published 2009).

Regarding `O=[Si]([O-])[O-].[Na+].[Na+]` [sodium metasilicate], the chlorophyll a content (Chaetoceros cultured for 20 days) is recorded as 0.12-0.16 pg/cell. For the same compound, for the setting “after culturing for 20 days, GF/F filter”, the “color of Chaetoceros collected on the filters, visual observation” value is “light brown color”.
